From paper PMC7400437, “Synthesis and Evaluation of the Antibacterial Activities of 13-Substituted Berberine Derivatives” (Antibiotics, 2020) come the findings set out here.

Converted amounts (≈) assume the structure as drawn.

One experiment relates to C. albicans. The experiment is described as follows: MIC, antifungal activity assay. In kind it is cell-based, Candida albicans (DSM 10697). The note with it: Candida albicans; Table 1 first screening; 35 °C, 24 h; read-out: Minimal Inhibitory Concentration (MIC) C. albicans.
The subject of another experiment is P. aeruginosa. In words: MIC, antimicrobial activity assay. The note with it: Pseudomonas aeruginosa; Table 1 first screening; read-out: Minimal Inhibitory Concentration (MIC) P. aeruginosa. In kind it is cell-based, Pseudomonas aeruginosa (ATCC 9027).
In the next experiment the test system is E. coli. In words: MIC, antimicrobial activity assay. The conditions noted are these: Escherichia coli; Table 1 first screening; read-out: Minimal Inhibitory Concentration (MIC) E. coli. In kind it is cell-based, Escherichia coli (ATCC 8739).
Experiment [1] concerns B. subtilis. The experiment is described as follows: MIC, antimicrobial activity assay. The note with it: Bacillus subtilis; Table 1 first screening; read-out: Minimal Inhibitory Concentration (MIC) B. subtilis. Type of experiment: cell-based, Bacillus subtilis (ATCC 6633).
Another experiment deals with S. aureus. In words: MIC, antimicrobial activity assay. In kind it is cell-based, Staphylococcus aureus (ATCC 6538P). The note with it: Staphylococcus aureus; Table 1 first screening; read-out: Minimal Inhibitory Concentration (MIC) S. aureus.
A further experiment concerns M. smegmatis. The experiment is described as follows: microbe, parasite or virus in culture. The note with it: Mycolicibacterium smegmatis, 72 h, read-out: Minimal Inhibitory Concentration (MIC) M. smegmatis. In kind it is cell-based, Mycobacterium smegmatis (mc2155, ATCC 700084).
Another experiment relates to V. alginolyticus. The experiment is described as follows: Macromolecule synthesis inhibition assay by fluorescent microscopy (morphological changes). The conditions noted are these: 4 × MIC, 2 h, 37 °C; for Observed Morphology: DNA, V. alginolyticus: DAPI; for Observed Morphology: cell membrane, V. alginolyticus: FM4-64FX.
Experiment [2] concerns B. subtilis. The description is as above. The note with it: 4 × MIC, 2 h, 37 °C; for Observed Morphology: DNA, B. subtilis: DAPI.

Take `COc1ccc2c(c1OC)CN1CCc3cc4c(cc3C1=C2)OCO4` [Compound 1, Dihydroberberine]: the MIC in the experiment with C. albicans was 100 µM (≈ 33.7 µg/mL); in the experiment with P. aeruginosa, greater than 100 µM; with E. coli, greater than 100 µM; with B. subtilis [1], greater than 100 µM; in the experiment on S. aureus it was 100 µM (≈ 33.7 µg/mL); in the experiment with M. smegmatis, greater than 100 µM.

Regarding `COc1ccc2c(Cc3ccc(S(N)(=O)=O)cc3)c3[n+](cc2c1OC)CCc1cc2c(cc1-3)OCO2` [Compound 10, 13-(4-Sulfamoylbenzyl)Berberine], the MIC in the experiment on C. albicans, in the experiment with P. aeruginosa, in the experiment on E. coli, with B. subtilis [1], in the experiment with S. aureus and in the experiment on M. smegmatis was greater than 100 µM throughout.

Regarding `COc1ccc2c(Cc3ccc(C=NO)cc3)c3[n+](cc2c1OC)CCc1cc2c(cc1-3)OCO2` [Compound 21, N-({4-[(Berberin-13-yl)methyl]phenyl}methylidene)hydroxylamine], the MIC in the experiment on C. albicans is greater than 100 µM; in the experiment with P. aeruginosa it was greater than 100 µM; in the experiment with E. coli, greater than 100 µM; with B. subtilis [1], 100 µM; with S. aureus, 50 µM; in the experiment on M. smegmatis it was 50 µM.

Regarding `COc1ccc2c(Cc3ccc(/C=C/C(=O)O)cc3)c3[n+](cc2c1OC)CCc1cc2c(cc1-3)OCO2` [Compound 22, (2E)-3-{4-[(Berberin-13-yl)methyl]phenyl}prop-2-enoic Acid], the MIC in the experiment on C. albicans, with P. aeruginosa, in the experiment with E. coli, in the experiment with B. subtilis [1], in the experiment with S. aureus and with M. smegmatis was greater than 100 µM each time.

Take `COc1ccc2c(CC(=O)O)c3[n+](cc2c1OC)CCc1cc2c(cc1-3)OCO2` [Compound 5, 13-(Acetic Acid) Berberine]: the MIC is greater than 100 µM with C. albicans; greater than 100 µM in the experiment on P. aeruginosa; greater than 100 µM in the experiment on E. coli; 100 µM with B. subtilis [1]; 100 µM in the experiment on S. aureus; 50 µM with M. smegmatis.

With `CO/N=C1\CN(c2nc3c(cc2F)c(=O)c(C(=O)O)cn3C2CC2)CC1CN` (centres unmarked) [Gemifloxacin, reference compound], the “Observed Morphology: cell elongation, V. alginolyticus” value with V. alginolyticus is reported as 3–9 times compared to control. In the experiment with V. alginolyticus, the “Observed Morphology: cells connected, V. alginolyticus” value is recorded as 1–2 cells connected. Also, the “Observed Morphology: DNA, V. alginolyticus” value in the experiment on V. alginolyticus was “Thick condensed DNA spanning the cell”. In addition, in the experiment on B. subtilis [2], the “Observed Morphology: cells connected, B. subtilis” value is recorded as “Single cells”. Besides, the “Observed Morphology: DNA, B. subtilis” value with B. subtilis [2] is on record as “Decondensed DNA”. Further, the MIC with P. aeruginosa was 0.25 µM (≈ 0.0973 µg/mL); with E. coli, 0.06 µM (≈ 0.0234 µg/mL); in the experiment on B. subtilis [1], 0.02 µM (≈ 0.00779 µg/mL); in the experiment on S. aureus it was 0.06 µM (≈ 0.0234 µg/mL); in the experiment on M. smegmatis, 2 µM (≈ 0.779 µg/mL).

Regarding `C[C@@H]1[C@H](O)[C@@H](C)/C=C/C=C/C=C/C=C/C=C/C=C/C=C/[C@H](O[C@@H]2O[C@H](C)[C@@H](O)[C@H](N)[C@@H]2O)C[C@@H]2O[C@](O)(C[C@@H](O)C[C@@H](O)[C@H](O)CC[C@@H](O)C[C@@H](O)CC(=O)O[C@H]1C)C[C@H](O)[C@H]2C(=O)O` [Amphotericin B, reference compound], in the experiment with C. albicans, the MIC came to 1.1 µM (≈ 1.02 µg/mL).

For the compound `COc1ccc2c(Cc3ccc(C=O)cc3)c3[n+](cc2c1OC)CCc1cc2c(cc1-3)OCO2` [Compound 12, 13-(4-Formylbenzyl)Berberine], the MIC with C. albicans was greater than 100 µM; with P. aeruginosa it was greater than 100 µM; in the experiment on E. coli, greater than 100 µM; in the experiment with B. subtilis [1], greater than 100 µM; with S. aureus it was 100 µM; in the experiment on M. smegmatis, 100 µM.

Turning to `CO[C@H]1/C=C/O[C@@]2(C)Oc3c(C)c(O)c4c(O)c(c(/C=N/N5CCN(C)CC5)c(O)c4c3C2=O)NC(=O)/C(C)=C\C=C\[C@H](C)[C@H](O)[C@@H](C)[C@@H](O)[C@@H](C)[C@H](OC(C)=O)[C@@H]1C` [Rifampicin], in the experiment on V. alginolyticus, the “Observed Morphology: cell elongation, V. alginolyticus” value is 2.5 times compared to control; the “Observed Morphology: cells connected, V. alginolyticus” value is given as 1–2 cells connected; the “Observed Morphology: DNA, V. alginolyticus” value is recorded as “Condensed DNA spanning the cell”; the “Observed Morphology: cell membrane, V. alginolyticus” value is on record as “Cell membrane pigmentation”. Moreover, in the experiment on B. subtilis [2], the “Observed Morphology: cell elongation/enlargement, B. subtilis” value is on record as 2.5 times compared to control; the “Observed Morphology: cells connected, B. subtilis” value is on record as 2–3 cells connected; the “Observed Morphology: DNA, B. subtilis” value was “DNA condensed in one thick filament crossing the cells some with dot like shape”. The “Observed Morphology: cell membrane, B. subtilis” value in the experiment on B. subtilis [2] (FM4-64FX) is recorded as “Cell membrane thickening”.

For the compound `CC1(C)S[C@@H]2[C@H](NC(=O)[C@H](N)c3ccc(O)cc3)C(=O)N2[C@H]1C(=O)O` [Amoxicillin], in the experiment with V. alginolyticus, the “Observed Morphology: cell elongation, V. alginolyticus” value is listed as 1–3 times compared to control; the “Observed Morphology: cells connected, V. alginolyticus” value is 1–2 cells connected; the “Observed Morphology: DNA, V. alginolyticus” value is “Thick condensed and decondensed DNA spanning the cell”; the “Observed Morphology: cell membrane, V. alginolyticus” value was “Cell membrane thickening”. In the experiment on B. subtilis [2], the “Observed Morphology: cell elongation/enlargement, B. subtilis” value is recorded as 1.5 times compared to control; the “Observed Morphology: cells connected, B. subtilis” value is recorded as 2–4 cells connected; the “Observed Morphology: DNA, B. subtilis” value is listed as 2 condensed DNA in each cell.

On to `COc1ccc2c(c1OC)C(CC(C)=O)N1CCc3cc4c(cc3C1=C2)OCO4` (centres unmarked) [Compound 3, 8-acetonyl dihydroberberine], for which the MIC is 100 µM (≈ 39.3 µg/mL) in the experiment on C. albicans; greater than 100 µM with P. aeruginosa; greater than 100 µM in the experiment on E. coli; greater than 100 µM in the experiment on B. subtilis [1]; 100 µM (≈ 39.3 µg/mL) with S. aureus; 100 µM (≈ 39.3 µg/mL) in the experiment with M. smegmatis.

`COc1ccc2c(Cc3ccc(C#N)cc3)c3[n+](cc2c1OC)CCc1cc2c(cc1-3)OCO2` [Compound 7, 13-(4-Cyanobenzyl)Berberine]: the MIC in the experiment with C. albicans was 100 µM; in the experiment with P. aeruginosa, greater than 100 µM; with E. coli, greater than 100 µM; with B. subtilis [1], greater than 100 µM; with S. aureus, 100 µM; in the experiment on M. smegmatis, 100 µM.

Consider `CN(C)[C@@H]1C(O)=C(C(N)=O)C(=O)[C@@]2(O)C(O)=C3C(=O)c4c(O)cccc4[C@@](C)(O)[C@H]3C[C@@H]12` [Tetracycline], for which, in the experiment on V. alginolyticus, the “Observed Morphology: cell elongation, V. alginolyticus” value is listed as 1.5–3 times compared to control; the “Observed Morphology: cells connected, V. alginolyticus” value is 1–3 cells connected; the “Observed Morphology: DNA, V. alginolyticus” value is “DNA condensed in one thin filament spiring the cells”. Besides, in the experiment with B. subtilis [2], the “Observed Morphology: cell elongation/enlargement, B. subtilis” value was 1.5–3 times compared to control; the “Observed Morphology: cells connected, B. subtilis” value is reported as 1–3 cells connected; the “Observed Morphology: DNA, B. subtilis” value was “DNA condensed in one thin filament across the cells”.
